In ChEMBL document CHEMBL3039007, “Structure-based identification of OATP1B1/3 inhibitors” (Mol Pharmacol, 2013):

How the values were obtained:
[1] = molecular target: T1, Solute carrier organic anion transporter family member 1B1 (Homo sapiens, UniProt Q9Y6L6); conditions: chinese hamster, cho, 10 µM
T1 sequence (Q9Y6L6 whole entry): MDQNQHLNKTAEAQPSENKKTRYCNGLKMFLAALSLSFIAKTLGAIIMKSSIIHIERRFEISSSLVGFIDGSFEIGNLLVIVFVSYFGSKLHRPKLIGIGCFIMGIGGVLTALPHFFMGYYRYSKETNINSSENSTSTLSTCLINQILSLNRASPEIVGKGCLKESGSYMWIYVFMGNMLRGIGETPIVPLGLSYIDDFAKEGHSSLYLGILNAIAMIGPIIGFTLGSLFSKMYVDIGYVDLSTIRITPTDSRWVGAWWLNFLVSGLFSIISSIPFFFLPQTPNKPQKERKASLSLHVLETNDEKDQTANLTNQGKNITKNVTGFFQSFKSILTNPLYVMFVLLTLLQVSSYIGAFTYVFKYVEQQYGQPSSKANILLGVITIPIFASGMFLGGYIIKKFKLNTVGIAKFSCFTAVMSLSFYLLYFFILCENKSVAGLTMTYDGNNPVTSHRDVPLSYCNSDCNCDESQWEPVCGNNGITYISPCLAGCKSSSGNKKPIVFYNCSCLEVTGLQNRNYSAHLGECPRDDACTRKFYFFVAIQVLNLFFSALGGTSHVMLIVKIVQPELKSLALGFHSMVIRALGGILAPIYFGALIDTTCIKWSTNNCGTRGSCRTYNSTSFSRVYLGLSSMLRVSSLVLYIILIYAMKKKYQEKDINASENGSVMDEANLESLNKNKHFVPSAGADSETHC

[2] = molecular target: T2, Solute carrier organic anion transporter family member 1B3 (Homo sapiens, UniProt Q9NPD5); conditions: chinese hamster, cho, 10 µM
T2 sequence (Q9NPD5 whole entry): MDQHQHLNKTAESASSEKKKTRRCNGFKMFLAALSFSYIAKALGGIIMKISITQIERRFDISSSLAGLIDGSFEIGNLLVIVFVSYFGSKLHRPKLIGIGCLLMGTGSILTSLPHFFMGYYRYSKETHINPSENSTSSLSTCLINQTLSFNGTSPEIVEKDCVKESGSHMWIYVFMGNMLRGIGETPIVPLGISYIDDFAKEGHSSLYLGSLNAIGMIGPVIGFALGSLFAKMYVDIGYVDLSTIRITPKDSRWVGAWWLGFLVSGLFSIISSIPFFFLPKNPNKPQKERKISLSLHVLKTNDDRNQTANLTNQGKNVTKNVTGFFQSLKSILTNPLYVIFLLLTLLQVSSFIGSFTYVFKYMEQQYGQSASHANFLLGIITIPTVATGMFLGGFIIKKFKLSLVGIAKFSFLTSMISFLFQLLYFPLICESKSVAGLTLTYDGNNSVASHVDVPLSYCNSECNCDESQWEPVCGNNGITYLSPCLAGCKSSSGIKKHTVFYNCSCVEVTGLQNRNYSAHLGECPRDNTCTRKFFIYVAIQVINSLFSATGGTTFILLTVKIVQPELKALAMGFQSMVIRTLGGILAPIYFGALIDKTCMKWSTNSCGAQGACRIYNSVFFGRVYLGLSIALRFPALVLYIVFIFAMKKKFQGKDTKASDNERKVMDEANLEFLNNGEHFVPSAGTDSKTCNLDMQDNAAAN

| SMILES | residual activity [1] [%] | residual activity [2] [%] |
| --- | --- | --- |
| COC(=O)[C@H](O)[C@H]1C(C)(C)[C@H](OC(C)=O)[C@@H]2CC3=C4CC(=O)O[C@@H](c5ccoc5)[C@]4(C)CC[C@@H]3[C@@]1(C)C2=O [SWIETENOLIDE-3-ACETATE] | 54.05 | 66.25 |
| COP(=S)(OC)Oc1ccc(SC)c(C)c1 [FENTHION] | 116.2 | 100.4 |
| COc1ccc2c(c1O)-c1c(OC)c(OC)cc3c1[C@H](C2)N(C)CC3 [ISOCORYDINE] | 115.2 | 102.1 |
| OCCN1C[C@H](O)[C@@H](O)[C@H](O)[C@H]1CO [MIGLITOL] | 99.55 | 80.3 |
| O=C(O)CCNC(=O)c1ccccc1 [BETAMIPRON] | 116.1 | 92.61 |
| CCCCC(=O)Oc1ccccc1C(=O)O [VALERYL SALYCILATE] | 78.97 | 92.91 |
| Cl.N=C(N)NC(=O)c1nc(Cl)c(N)nc1N.O.O [AMILORIDE HYDROCHLORIDE] | 51.46 | 65.11 |
| O=C(Oc1cc(OC(=O)c2ccccc2)c2c(c1)O[C@H](c1ccc(OC(=O)c3ccccc3)c(OC(=O)c3ccccc3)c1)[C@@H](OC(=O)c1ccccc1)C2)c1ccccc1 [CATECHIN PENTABENZOATE] | 113.2 | 118.6 |
| Cc1ccc(C(=O)c2ccc(CC(=O)[O-])n2C)cc1.[Na+] [TOLMETIN SODIUM] | 127.1 | 90.31 |
| C[C@]12CC[C@@H]3c4ccc(O)cc4CC[C@H]3[C@@H]1C[C@@H](O)[C@@H]2O [ESTRIOL] | 110.2 | 102.7 |
| COc1ccc2cc1Oc1ccc(cc1)C[C@H]1c3c(cc4c(c3Oc3cc5c(cc3OC)CCN(C)[C@@H]5C2)OCO4)CCN1C [CEPHARANTHINE] | 91.94 | 125.1 |
| CC=CC(=O)N(CC)c1ccccc1C | 71.83 | 72.95 |
| CN(Cc1cc(Br)cc(Br)c1N)C1CCCCC1.Cl [BROMHEXINE HYDROCHLORIDE] | 103.1 | 95.98 |
| O=C(O)C1CCCNC1 (stereo not given) [NIPECOTIC ACID] | 91.42 | 103.2 |
| N=C(N)NC(=O)c1nc(Cl)c(N2CCCCCC2)nc1N [N,N-HEXAMETHYLENEAMILORIDE] | 122.5 | 162.9 |
| CCC(=O)O[C@H]1CC[C@H]2[C@@H]3CCC4=CC(=O)CC[C@]4(C)[C@H]3CC[C@]12C [TESTOSTERONE PROPIONATE] | 121 | 133.5 |
| CN(C)CCc1c[nH]c2ccc(C[C@H]3COC(=O)N3)cc12 [ZOLMITRIPTAN] | 95.98 | 102.5 |
| CCCNC(=O)NS(=O)(=O)c1ccc(Cl)cc1 [CHLORPROPAMIDE] | 102 | 102.2 |
| C=CC(C1=CC(=O)C(OC)=CC1=O)c1ccccc1 (stereo not given) [4-METHOXYDALBERGIONE] | 77.75 | 139.3 |
| CC1(C)C2(Cl)C(Cl)C(Cl)C(Cl)(C(Cl)Cl)C1(Cl)C2Cl (stereo not given) [STROBANE] | 106.1 | 105.4 |
| CC1(C)C=CC(=O)[C@]2(C)[C@H]3CC[C@@]4(C)[C@H](c5ccoc5)OC(=O)[C@H]5O[C@]54[C@]3(C)C(=O)C[C@@H]12 | 56.15 | 89.62 |
| C[C@]12CCC(=O)C=C1CC[C@@H]1[C@@H]2[C@@H](O)C[C@@]2(C)[C@H]1CC[C@]2(O)C(=O)COC(=O)CCC(=O)O [HYDROCORTISONE HEMISUCCINATE ANHYDROUS] | 93.98 | 101.8 |
| Cl.Clc1cccc(Cl)c1NC1=NCCN1 [CLONIDINE HYDROCHLORIDE] | 73 | 99.63 |

| SMILES | residual activity [1] [%] | residual activity [2] [%] |
| --- | --- | --- |
| CC(NCCC(c1ccccc1)c1ccccc1)c1ccccc1.Cl (stereo not given) [FENDILINE HYDROCHLORIDE] | 90.27 | 114.6 |
| CCOC(=O)[C@H](CCc1ccccc1)N[C@H]1CCc2ccccc2N(CC(=O)O)C1=O.Cl [BENAZEPRIL HYDROCHLORIDE] | 101.2 | 84.15 |
| CC(C)(C)N.CCC[C@H](N[C@@H](C)C(=O)N1[C@H](C(=O)O)C[C@@H]2CCCC[C@@H]21)C(=O)OCC [PERINDOPRIL ERBUMINE] | 107.5 | 81.39 |
| NC(=O)c1ccc([N+](=O)[O-])cc1Cl [AKLOMIDE] | 115.5 | 100.2 |
| N#C[C@H](O[C@@H]1O[C@H](CO[C@@H]2O[C@H](CO)[C@@H](O)[C@H](O)[C@H]2O)[C@@H](O)[C@H](O)[C@H]1O)c1ccccc1 [AMYGDALIN] | 118.1 | 103.6 |
| CN(C)c1ccc(C(=C2C=CC(=[N+](C)C)C=C2)c2ccc(N(C)C)cc2)cc1.[Cl-] [GENTIAN VIOLET] | 109.6 | 92.5 |
| COc1ccc2c(c1OC)C(=O)O[C@@H]2[C@H]1c2c(cc3c(c2OC)OCO3)CCN1C.Cl [NOSCAPINE HYDROCHLORIDE] | 114.6 | 93.17 |
| C[C@]12CC[C@@H]3c4ccc(O)cc4CC[C@H]3[C@@H]1CC[C@@H]2OC(=O)CCC1CCCC1 [ESTRADIOL CYPIONATE] | 81.59 | 90.49 |
| COc1ccc2c(=O)c(OC)c(-c3ccccc3)oc2c1 [3,7-DIMETHOXYFLAVONE] | 59.28 | 144.6 |
| O[C@H]1[C@H]2c3cc4c(cc3CN3CCC(=C[C@@H]1O)[C@H]23)OCO4 [LYCORINE] | 60.96 | 97.14 |
| COC1C(O)C(O[C@H]2CC[C@]3(C=O)C4C(CC[C@]3(O)C2)[C@@]2(O)CC[C@H](C3=CC(=O)OC3)[C@@]2(C)C[C@H]4OC(C)=O)OC(C)C1OC(C)=O (stereo not given in full) [SARMENTOSIDE B] | 58.47 | 72.65 |
| COc1cc(OC)c2c(c1)O[C@H](c1ccc(OC)c(OC)c1)[C@@H](O)C2 | 123.7 | 103.7 |
| Cl.N/C(=N\C(=O)c1nc(Cl)c(N)nc1N)NCc1ccccc1 [BENZAMIL HYDROCHLORIDE] | 93.84 | 105 |
| COC1(C)CCC2OC2(C)CCC2C1CC2(C)C (stereo not given) [2-METHOXY-5 (6)EPOXY-TETRAHYDROCARYOPHYLLENE] | 92.29 | 93.07 |
| COC(=O)[C@]1(C)CC[C@]2(C)CC[C@]3(C)C4=CCc5c(cc(O)c(O)c5C)[C@]4(C)CC[C@@]3(C)[C@@H]2C1 [PRISTIMEROL] | 70.1 | 86.64 |
| O=c1c(O)c(-c2ccc(O)c(O)c2)oc2cc(O)ccc12 [FISETIN] | 56.32 | 108.5 |
| O=C1C=C2CC3(O)COc4cc(O)ccc4C3=C2C=C1O (stereo not given) [BRAZILEIN] | 96.33 | 95.51 |
| Cl.O=C(O)CCC1NCC2CC1CN1CCCCC21 (stereo not given) [LUPANYL ACID HYDROCHLORIDE] | 104.4 | 103.3 |
| CC1(C)C=Cc2cc3ccc(=O)oc3cc2O1 [XANTHYLETIN] | 75.53 | 85.95 |
| C[C@@H]1O[C@@H](O[C@H]2C[C@@H](O)[C@]3(CO)[C@H]4[C@H](O)C[C@]5(C)[C@@H](C6=CC(=O)OC6)CC[C@]5(O)[C@@H]4CC[C@]3(O)C2)[C@H](O)[C@H](O)[C@H]1O [OUABAIN] | 108.1 | 98.13 |
| C=C(C)[C@H]1CC=C(C(=O)O)CC1 [PERILLIC ACID (-)] | 102.2 | 105 |
| NC(N)=O [UREA] | 87.46 | 105.9 |
